The record followed here is article PMC5391474, “Investigation of the Role of Protein Kinase D in Human Rhinovirus Replication” (Journal of Virology, 2017).

Experiment in all cases: biochemical
What all share (set-up): in vitro kinase selectivity panel, protein and lipid kinases, single concentration, ATP at Km
Common to all, as to conditions: ATP at Km

In one assay the target is FGFR4(h) (Homo sapiens, UniProt P22455). As for the experimental part:
(§1) CRT0066101 was described previously ([48]) and was purchased for this study from Tocris, with a purity of 99.9%. CRT0066101 (XX-209) and compound XX-050 were synthesized as previously described ([68]). CRT0066051 (Y-095) was also synthesized as previously described ([69]). […] CRT0066101 can also be obtained in larger quantities from Ximbio. Inhibitors were tested in in vitro PKD kinase assays and cellular assays on PANC1 cells as previously described ([48]). The selectivity of the three PKD inhibitors was determined against a panel of protein and lipid kinases by Eurofins and the MRC PPU International Centre for Kinase Profiling (http://www.kinase-screen.mrc.ac.uk), respectively. Each inhibitor was tested at a single concentration of 1 μM and at an ATP concentration equivalent to the Km for each kinase. Having shown that HRV infection appears to activate PKD, we went on to explore the influence of chemical inhibitors of PKD on HRV replication. The compound CRT0066101 is a specific and potent PKD inhibitor that has been used in studies exploring its potential as an anticancer target ([48], [51]). This inhibitor has a 50% inhibitory concentration (IC50) of 1 nM against purified PKD in biochemical assays and a 50% effective concentration (EC50) of 1 μM in a cell-based assay (Table 1). We pretreated HeLa cells with increasing concentrations of the drug for 1 h followed by infection with HRV16. Viral replication was subsequently measured at 6 hpi by quantitative real-time PCR (qRT-PCR) (Fig. 2A) and by Western blotting using an antibody against the viral nonstructural protein 2C (Fig. 2B). […] Furthermore, we tested two novel and structurally different PKD inhibitors (CRT0066051 and XX-050) (Table 1) and confirmed that they too inhibited HRV 2C expression although with different potencies (Fig. 2D). Kinase selectivity profiling of all three PKD inhibitors was performed against a panel of protein and lipid kinases at a drug concentration of 1 μM and at an ATP concentration equivalent to the Km of each kinase (see Table S1 in the supplemental material). […] Since PKD is known to be involved in regulating the architecture of the Golgi apparatus, we confirmed the pharmacodynamic effect of these inhibitors by demon

For another assay, the target named is Flt4(h) (Homo sapiens, UniProt P35916). As for the experimental part:
as §1

In a further assay the target is HIPK1(h) (Homo sapiens, UniProt Q86Z02). As for the experimental part:
as §1

The target of a further assay is ErbB4(h) (Homo sapiens, UniProt Q15303). On the procedure: as §1
The target of another assay is T1, Tie2 (h) (Homo sapiens, UniProt Q02763).
T1 construct: gene TEK
T1 sequence (Q02763 whole entry): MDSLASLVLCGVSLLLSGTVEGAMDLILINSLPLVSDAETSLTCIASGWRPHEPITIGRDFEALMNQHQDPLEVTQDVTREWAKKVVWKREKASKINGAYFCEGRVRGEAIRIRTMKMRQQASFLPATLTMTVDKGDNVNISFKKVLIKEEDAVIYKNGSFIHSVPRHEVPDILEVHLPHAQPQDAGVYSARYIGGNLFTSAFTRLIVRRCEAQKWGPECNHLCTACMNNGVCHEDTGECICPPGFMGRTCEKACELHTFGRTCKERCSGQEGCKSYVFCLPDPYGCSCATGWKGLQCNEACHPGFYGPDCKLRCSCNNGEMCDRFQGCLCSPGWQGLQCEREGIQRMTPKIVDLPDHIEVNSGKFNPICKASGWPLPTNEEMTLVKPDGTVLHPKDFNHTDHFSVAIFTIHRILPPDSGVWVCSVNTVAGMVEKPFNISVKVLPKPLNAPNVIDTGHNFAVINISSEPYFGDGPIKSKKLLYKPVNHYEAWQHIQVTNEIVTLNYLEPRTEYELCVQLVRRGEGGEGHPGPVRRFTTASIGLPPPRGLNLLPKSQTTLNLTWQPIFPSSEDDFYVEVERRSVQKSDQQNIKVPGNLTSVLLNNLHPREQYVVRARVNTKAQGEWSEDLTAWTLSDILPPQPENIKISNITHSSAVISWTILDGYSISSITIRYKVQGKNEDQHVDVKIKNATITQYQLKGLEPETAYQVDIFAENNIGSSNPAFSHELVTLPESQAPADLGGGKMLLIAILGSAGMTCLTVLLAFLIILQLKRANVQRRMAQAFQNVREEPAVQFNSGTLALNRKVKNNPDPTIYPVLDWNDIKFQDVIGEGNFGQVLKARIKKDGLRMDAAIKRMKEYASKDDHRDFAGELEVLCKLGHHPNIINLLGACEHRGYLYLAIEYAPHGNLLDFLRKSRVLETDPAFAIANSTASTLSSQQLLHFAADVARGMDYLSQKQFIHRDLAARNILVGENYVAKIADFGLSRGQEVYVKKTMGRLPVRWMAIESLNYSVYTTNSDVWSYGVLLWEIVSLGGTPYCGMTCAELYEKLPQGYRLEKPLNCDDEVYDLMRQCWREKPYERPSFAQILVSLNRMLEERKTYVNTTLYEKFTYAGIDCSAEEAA
As for the experimental part:
as §1

Another assay concerns the target PIK3CA (Homo sapiens, UniProt P42336). As for the experimental part:
as §1

A further assay addresses PIK3CG (Homo sapiens, UniProt P48736). As for the experimental part:
as §1

The target in another assay is CDK2/cyclinA(h) (Homo sapiens, UniProt P24941). As for the experimental part:
as §1

A further assay deals with T2, CaMKIV(h) (Homo sapiens, UniProt Q16566).
T2 construct: gene CAMK4
T2 sequence (Q16566 whole entry): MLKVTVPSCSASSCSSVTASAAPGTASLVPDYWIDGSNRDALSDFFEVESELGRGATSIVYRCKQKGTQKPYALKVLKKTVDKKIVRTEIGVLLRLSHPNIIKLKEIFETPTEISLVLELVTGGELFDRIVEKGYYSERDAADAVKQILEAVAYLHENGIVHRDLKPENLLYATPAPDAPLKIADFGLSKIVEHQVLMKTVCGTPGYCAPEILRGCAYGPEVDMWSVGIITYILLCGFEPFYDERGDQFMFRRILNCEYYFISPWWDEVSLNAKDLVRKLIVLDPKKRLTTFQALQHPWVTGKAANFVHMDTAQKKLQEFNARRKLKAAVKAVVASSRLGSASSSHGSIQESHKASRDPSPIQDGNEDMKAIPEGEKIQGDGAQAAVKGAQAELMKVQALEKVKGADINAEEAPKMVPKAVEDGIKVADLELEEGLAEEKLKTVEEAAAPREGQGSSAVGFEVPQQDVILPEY
On the procedure:
as §1

For another assay, the target named is T3, BRK(h) (Homo sapiens, UniProt Q13882).
T3 construct: gene PTK6
As for the experimental part: as §1

The next assay has as its target T4, Ros(h) (Homo sapiens, UniProt P08922).
T4 construct: gene ROS1
As for the experimental part:
as §1

In the next assay the target is T5, PKCζ(h) (Homo sapiens, UniProt Q05513).
T5 construct: gene PRKCZ
T5 sequence (Q05513 whole entry): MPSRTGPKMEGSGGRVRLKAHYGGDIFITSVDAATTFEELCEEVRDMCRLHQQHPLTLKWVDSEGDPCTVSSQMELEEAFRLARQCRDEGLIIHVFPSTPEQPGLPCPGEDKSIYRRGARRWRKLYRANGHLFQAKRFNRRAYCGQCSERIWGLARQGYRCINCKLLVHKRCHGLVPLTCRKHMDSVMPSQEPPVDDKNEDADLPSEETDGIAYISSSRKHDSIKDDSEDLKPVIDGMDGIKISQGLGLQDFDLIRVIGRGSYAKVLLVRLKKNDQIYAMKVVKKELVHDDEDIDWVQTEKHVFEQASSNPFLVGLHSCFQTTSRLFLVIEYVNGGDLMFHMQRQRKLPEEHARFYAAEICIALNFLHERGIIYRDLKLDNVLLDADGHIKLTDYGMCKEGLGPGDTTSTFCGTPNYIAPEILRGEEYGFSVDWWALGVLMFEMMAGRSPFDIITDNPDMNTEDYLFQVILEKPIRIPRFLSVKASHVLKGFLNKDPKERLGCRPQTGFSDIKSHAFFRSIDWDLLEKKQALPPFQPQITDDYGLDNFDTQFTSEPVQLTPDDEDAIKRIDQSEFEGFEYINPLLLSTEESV
As for the experimental part: as §1

Another assay deals with T6, Yes(h) (Homo sapiens, UniProt P07947).
T6 construct: gene YES1
As for the experimental part:
as §1

Another assay concerns the target T7, MST2(h) (Homo sapiens, UniProt Q13188).
T7 construct: gene STK3
On the procedure:
as §1

The next assay concerns the target Bmx(h) (Homo sapiens, UniProt P51813). On the procedure: as §1
The next assay has as its target T8, PDGFRα(D842V)(h) (Homo sapiens, UniProt P16234, D842V).
T8 construct: gene PDGFRA
On the procedure:
as §1

The next assay concerns the target DGKG (Homo sapiens, UniProt P49619). On the procedure:
as §1

In another assay the target is EphA7(h) (Homo sapiens, UniProt Q15375). As for the experimental part:
as §1

T8 sequence (P16234 whole entry D842V): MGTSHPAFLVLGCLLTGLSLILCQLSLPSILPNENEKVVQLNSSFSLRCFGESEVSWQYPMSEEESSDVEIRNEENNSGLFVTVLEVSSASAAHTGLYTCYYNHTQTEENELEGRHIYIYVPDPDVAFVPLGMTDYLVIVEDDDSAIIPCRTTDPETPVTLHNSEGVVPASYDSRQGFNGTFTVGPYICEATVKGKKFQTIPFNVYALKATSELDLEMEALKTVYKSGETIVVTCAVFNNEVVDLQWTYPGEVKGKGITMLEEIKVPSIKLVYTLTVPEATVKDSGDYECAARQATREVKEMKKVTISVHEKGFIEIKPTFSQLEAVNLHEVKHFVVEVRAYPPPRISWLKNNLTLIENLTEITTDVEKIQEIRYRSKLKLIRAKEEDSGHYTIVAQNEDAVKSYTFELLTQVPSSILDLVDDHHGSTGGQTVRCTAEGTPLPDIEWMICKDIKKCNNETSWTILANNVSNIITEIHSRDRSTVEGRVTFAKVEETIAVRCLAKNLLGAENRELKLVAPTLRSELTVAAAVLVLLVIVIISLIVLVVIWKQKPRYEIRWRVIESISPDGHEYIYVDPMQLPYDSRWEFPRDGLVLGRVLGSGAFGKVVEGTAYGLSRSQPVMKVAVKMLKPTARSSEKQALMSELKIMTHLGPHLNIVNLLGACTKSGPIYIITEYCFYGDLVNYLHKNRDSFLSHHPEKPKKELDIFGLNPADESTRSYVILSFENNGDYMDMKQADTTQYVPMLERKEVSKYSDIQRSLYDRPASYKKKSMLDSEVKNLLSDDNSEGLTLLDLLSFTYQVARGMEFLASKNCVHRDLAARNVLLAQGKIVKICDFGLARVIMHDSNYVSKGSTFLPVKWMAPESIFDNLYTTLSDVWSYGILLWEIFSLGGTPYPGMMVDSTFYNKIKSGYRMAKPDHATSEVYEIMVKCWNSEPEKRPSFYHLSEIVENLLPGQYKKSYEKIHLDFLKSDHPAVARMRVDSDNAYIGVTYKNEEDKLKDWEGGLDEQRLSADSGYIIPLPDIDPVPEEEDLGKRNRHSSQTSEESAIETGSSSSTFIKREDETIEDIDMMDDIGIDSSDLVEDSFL
Chain of DGKG (P49619 whole entry): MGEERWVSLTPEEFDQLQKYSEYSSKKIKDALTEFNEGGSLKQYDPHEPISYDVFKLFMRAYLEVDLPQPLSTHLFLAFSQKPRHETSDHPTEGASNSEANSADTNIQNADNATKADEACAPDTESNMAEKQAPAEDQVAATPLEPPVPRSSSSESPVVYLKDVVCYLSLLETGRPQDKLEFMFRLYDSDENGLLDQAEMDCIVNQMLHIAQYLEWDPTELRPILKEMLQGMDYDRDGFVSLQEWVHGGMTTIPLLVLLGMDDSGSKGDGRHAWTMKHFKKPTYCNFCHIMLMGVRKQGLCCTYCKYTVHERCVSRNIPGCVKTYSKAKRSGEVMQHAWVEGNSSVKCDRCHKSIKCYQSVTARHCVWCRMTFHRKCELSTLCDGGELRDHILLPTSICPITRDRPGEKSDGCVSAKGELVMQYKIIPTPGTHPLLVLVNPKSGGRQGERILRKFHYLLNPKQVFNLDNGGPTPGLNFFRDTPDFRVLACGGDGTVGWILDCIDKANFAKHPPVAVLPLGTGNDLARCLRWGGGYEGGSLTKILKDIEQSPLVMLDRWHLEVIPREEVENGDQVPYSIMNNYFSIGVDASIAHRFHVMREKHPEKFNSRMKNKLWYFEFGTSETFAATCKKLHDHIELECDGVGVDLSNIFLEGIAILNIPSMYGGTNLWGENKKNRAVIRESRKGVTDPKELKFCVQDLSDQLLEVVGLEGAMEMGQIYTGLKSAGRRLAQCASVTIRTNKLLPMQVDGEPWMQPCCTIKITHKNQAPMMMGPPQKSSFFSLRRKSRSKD
Chain of Bmx(h) (P51813 whole entry): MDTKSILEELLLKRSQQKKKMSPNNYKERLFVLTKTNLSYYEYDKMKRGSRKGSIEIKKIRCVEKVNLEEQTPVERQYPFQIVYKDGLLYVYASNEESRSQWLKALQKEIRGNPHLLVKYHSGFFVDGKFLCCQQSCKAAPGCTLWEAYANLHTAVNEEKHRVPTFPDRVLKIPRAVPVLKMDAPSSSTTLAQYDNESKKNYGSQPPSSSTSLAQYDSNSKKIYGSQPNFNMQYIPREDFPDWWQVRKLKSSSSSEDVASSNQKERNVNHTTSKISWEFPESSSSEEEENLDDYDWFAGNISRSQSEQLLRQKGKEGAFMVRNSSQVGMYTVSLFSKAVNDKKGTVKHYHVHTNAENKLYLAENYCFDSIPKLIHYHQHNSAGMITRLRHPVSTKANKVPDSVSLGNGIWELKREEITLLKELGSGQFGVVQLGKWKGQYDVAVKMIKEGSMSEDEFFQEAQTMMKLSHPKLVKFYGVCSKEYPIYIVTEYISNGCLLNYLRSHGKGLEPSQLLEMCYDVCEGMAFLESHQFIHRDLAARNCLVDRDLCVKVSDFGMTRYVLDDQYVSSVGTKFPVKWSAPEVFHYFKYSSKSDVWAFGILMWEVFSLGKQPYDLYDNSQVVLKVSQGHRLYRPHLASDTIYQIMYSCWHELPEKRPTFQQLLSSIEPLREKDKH

Regarding `CC[C@@H](N)CNc1ccnc(-c2cc(-c3cnn(C)c3)ccc2O)n1` [CRT0066101], the inhibition (in general, the relative decrease from the control value, in per cent) at 1 µM at FGFR4(h) is -2%; at Flt4(h), 22%; against HIPK1(h), 23%; on ErbB4(h), 3%; at Tie2 (h), 4%; against PIK3CA, 1%. In addition, the inhibition at 1 µM is 29% against PIK3CG; 53% on CDK2/cyclinA(h); 26% against CaMKIV(h); 17% at BRK(h); -13% at Ros(h); -8% against PKCζ(h). Further, the inhibition at 1 µM at Yes(h) is 40%; against MST2(h) it was 20%; against Bmx(h), 26%; against PDGFRα(D842V)(h), 61%; at DGKG it was -3%; against EphA7(h), -9%.
